In ChEMBL document CHEMBL5500409, “Discovery of 5-(Piperidin-4-yl)-1,2,4-oxadiazole Derivatives as a New Class of Human Caseinolytic Protease P Agonists for the Treatment of Hepatocellular Carcinoma” (J Med Chem, 2024):

Key:
[1] = target: T1, ATP-dependent Clp protease proteolytic subunit, mitochondrial (Homo sapiens, UniProt Q16740); assay: Agonist activity at human ClpP using Ac-WLA-AMC as substrate assessed as induction of substrate degradation
HCCLM3 [2] = assay: cells; settings: Homo sapiens, HCCLM3, 72 h
Description: Antiproliferative activity against human HCCLM3 cells assessed as inhibition of cell proliferation measured after 72 hrs by MTT assay

[3] = target: T1, ATP-dependent Clp protease proteolytic subunit, mitochondrial; assay: Agonist activity at N-terminal SUMO tagged human ClpP transfected in Escherichia coli assessed as induction of alpha-casein degradation preincubated for 10 mins followed by alpha-casein addition and measured after 2 hrs by brilliant blue staining based SDS-PAGE analysis
HCCLM3 [4] = assay: cells; settings: Homo sapiens, HCCLM3, 72 h, read-out: INH
Description: Antiproliferative activity against human HCCLM3 cells assessed as inhibition of cell proliferation at 10 uM measured after 72 hrs by MTT assay relative to control

HCCLM3 [5] = assay: Antitumor activity against human HCCLM3 cells xenografted in female Balb/c nude mouse assessed as tumor growth inhibition at 20 mg/kg, ip tumor inoculated for 5 days followed by compound administration every 2 days for 4 weeks relative to control; settings: HCCLM3, 672 h, read-out: TGI

T1 sequence (Q16740 whole entry): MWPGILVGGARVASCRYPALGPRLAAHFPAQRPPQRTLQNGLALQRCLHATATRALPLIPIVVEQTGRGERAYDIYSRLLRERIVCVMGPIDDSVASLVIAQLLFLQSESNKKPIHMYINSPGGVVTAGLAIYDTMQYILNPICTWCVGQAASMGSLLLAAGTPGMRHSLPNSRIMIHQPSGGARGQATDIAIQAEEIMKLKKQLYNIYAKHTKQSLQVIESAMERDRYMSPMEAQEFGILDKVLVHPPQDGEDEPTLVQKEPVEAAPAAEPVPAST

IC50 (HCCLM3 [2]) | SMILES | inhibition at 10 µM (HCCLM3 [4]) | also measured
66.4 µM | O=C(c1ccc(F)cc1)N1CCC[C@H](c2nc(-c3ccc(F)cc3)no2)C1 |  | EC50 [1]: 1.2 µM; EC50 [3]: 29.7 µM
3.7 µM | N#Cc1cccc(CN2CCC(c3nc(Cc4ccc(F)c(Br)c4)no3)CC2)c1 | 83.2% | 
 | N#Cc1cccc(CN2CCC(c3nc(Cc4cc(F)cc(F)c4)no3)CC2)c1 | 46.4% | 
6.4 µM | N#Cc1cccc(CN2CCC(c3nc(Cc4ccc(Br)c(F)c4)no3)CC2)c1 | 74.4% | 
9.3 µM | N#Cc1cccc(CN2CCC(c3nc(Cc4ccc(Cl)cc4F)no3)CC2)c1 | 55.9% | 
 | O=C(c1ccc(F)cc1)N1CCC[C@@H](c2nc(-c3ccc(F)cc3)no2)C1 | 17.8% | 
 | O=S(=O)(NCCc1nc(Cc2ccc(F)cc2)no1)c1ccc(F)cc1 | 13.2% | 
 | O=C(Cc1ccc(F)cc1)N1CC(c2nc(Cc3ccc(F)cc3)no2)C1 | 11.5% | 
4.8 µM | N#Cc1cccc(CN2CCC(c3nc(Cc4cc(F)c(F)c(F)c4)no3)CC2)c1 | 80.9% | 
9.8 µM | N#Cc1cccc(CN2CCC(c3nc(Cc4cccc(F)c4)no3)CC2)c1 | 50.4% | 
 | N#Cc1cccc(CN2CCC(c3nc(-c4ccc(C(F)(F)F)cc4)no3)CC2)c1 | 19.5% | 
 | N#Cc1cccc(C(=O)N2CCC(c3nc(Cc4ccc(F)cc4)no3)CC2)c1 | 22.4% | 
7.2 µM | N#Cc1cccc(CN2CCC(c3nc(Cc4cccc(C(F)(F)F)c4)no3)CC2)c1 | 73.6% | 
 | Fc1ccc(Cc2noc(C3CCN(Cc4ccc(C(F)(F)F)cc4)CC3)n2)cc1 | 18.8% | 
 | O=C(c1ccc(F)cc1)N1CC[C@H](c2nc(Cc3ccc(F)cc3)no2)C1 | 6% | 
 | O=C(c1ccc(F)cc1)N1CCC[C@H](c2nc(Cc3ccc(F)cc3)no2)C1 | 9.3% | 
 | N#Cc1cccc(CN2CCC(c3nc(-c4cccc(C(F)(F)F)c4)no3)CC2)c1 | 30.3% | 
 | N#Cc1cccc(CN2CCC(c3nc(Cc4ccc(F)cc4F)no3)CC2)c1 | 36.4% | 
 | N#Cc1cccc(CN2CCC(c3nc(Cc4ccc(Br)cc4F)no3)CC2)c1 | 23.7% | 
 | Cc1ccccc1Cc1noc(C2CCN(Cc3cccc(C#N)c3)CC2)n1 | 12.3% | 
7.7 µM | N#Cc1cccc(CN2CCC(c3nc(Cc4ccccc4)no3)CC2)c1 | 64.5% | 
 | O=C(c1ccc(F)cc1)N1CCC(c2nc(Cc3ccc(F)cc3)no2)CC1 | 22.1% | 
 | O=C(Cc1ccc(F)cc1)N1CC[C@H](c2nc(Cc3ccc(F)cc3)no2)C1 | 5.8% | 
5.9 µM | N#Cc1cccc(CN2CCC(c3nc(Cc4ccc(F)cc4)no3)CC2)c1 | 77.5% | 
 | O=C(NCCc1nc(Cc2ccc(F)cc2)no1)c1ccc(C(F)(F)F)cc1 | 15.5% | 
 | Fc1ccc(CN2CCC[C@@H](c3nc(-c4ccc(F)cc4)no3)C2)cc1 | 11% | 
 | O=C(c1ccc(F)cc1)N1CC(c2nc(Cc3ccc(F)cc3)no2)C1 | 23% | 

IC50 (HCCLM3 [2]) | SMILES | inhibition at 10 µM (HCCLM3 [4]) | also measured
 | O=C(Cc1ccc(F)cc1)N1CCC[C@@H](c2nc(-c3ccc(F)cc3)no2)C1 | 18.3% | 
6.7 µM | N#Cc1cccc(CN2CCC(c3nc(Cc4ccc(Br)cc4)no3)CC2)c1 | 70% | 
 | Fc1ccc(Cc2noc([C@H]3CCCN3Cc3ccc(F)cc3)n2)cc1 | 32.5% | 
 | Fc1ccc(Cc2noc(C3CCN(Cc4ccccn4)CC3)n2)cc1Cl | 11.1% | 
7.6 µM | N#Cc1cccc(CN2CCC(c3nc(Cc4ccc(Cl)c(F)c4)no3)CC2)c1 | 71.1% | 
 | Fc1ccc(Cc2noc([C@H]3CCCN3Cc3ccc(C(F)(F)F)cc3)n2)cc1 | 13.3% | 
 | Fc1ccc(Cc2noc(C3CCN(Cc4ccc(F)cc4)CC3)n2)cc1 | 30% | 
 | N#Cc1cccc(CN2CCC(c3nc(Cc4cc(F)ccc4F)no3)CC2)c1 | 12.2% | 
 | N#Cc1cccc(CN2CCC(c3nc(Cc4ccc(F)cc4Cl)no3)CC2)c1 | 10.4% | 
 | N#Cc1cccc(CC(=O)N2CCC(c3nc(Cc4ccc(F)cc4)no3)CC2)c1 | 31.5% | 
 | Fc1ccc(Cc2noc([C@H]3CCCN(Cc4ccc(F)cc4)C3)n2)cc1 | 22.5% | 
7.9 µM | N#Cc1cccc(CN2CCC(c3nc(Cc4ccccc4F)no3)CC2)c1 | 68.9% | 
8.9 µM | N#Cc1cccc(CN2CCC(c3nc(Cc4ccc(Cl)cc4)no3)CC2)c1 | 61.5% | 
 | O=C(Cc1ccc(F)cc1)N1CCC[C@H](c2nc(Cc3ccc(F)cc3)no2)C1 | 5.3% | 
3.7 µM | N#Cc1cccc(CN2CCC(c3nc(Cc4ccc(F)c(F)c4)no3)CC2)c1 | 88.3% | 
9.2 µM | N#Cc1cccc(CN2CCC(c3nc(Cc4ccc(C(F)(F)F)cc4)no3)CC2)c1 | 56.4% | 
 | N#Cc1cccc(CN2CCC(c3nc(Cc4cccc(F)c4F)no3)CC2)c1 | 11.7% | 
 | N#Cc1cccc(C(=O)NCCc2nc(Cc3ccc(F)cc3)no2)c1 | 16.1% | 
 | N#Cc1cccc(CN2CC(c3nc(Cc4ccc(F)cc4)no3)C2)c1 | 5.9% | 
 | O=C(NCCc1nc(Cc2ccc(F)cc2)no1)c1ccc(F)cc1 | 24.3% | 
 | N#Cc1cccc(CN2CCC[C@@H]2c2nc(Cc3ccc(F)cc3)no2)c1 | 38.8% | 
 | Fc1ccc(Cc2noc(C3CCN(Cc4cccnc4)CC3)n2)cc1Cl | 16.7% | 
 | N#Cc1cccc(CN2CCC(c3nc(Cc4c(F)c(F)c(F)c(F)c4F)no3)CC2)c1 | 12.8% | 
 | Cc1ccc(Cc2noc(C3CCN(Cc4cccc(C#N)c4)CC3)n2)cc1 | 20.6% | 
 | N#Cc1cccc(CN2CCC(c3nc(Cc4ccc(F)cc4Br)no3)CC2)c1 | 12.7% | 
6.3 µM | CNC(=O)c1cc(Oc2ccc(NC(=O)Nc3ccc(Cl)c(C(F)(F)F)c3)cc2)ccn1 [SORAFENIB] |  | inhibition in vivo at 20 mg/kg (HCCLM3 [5]): 80.2%
